Test results: patent US5827849A, “Cyclic dericatives, pharmaceutical compositions containing these compounds and processes for preparing them” (Karl Thomae GmbH, priority 1993, dated 1998)
Counter-ions that a name gives are not always drawn.

What was measured:
[1] = tested on: Thrombocyte aggregation (collagen-induced); assay: Collagen-induced platelet aggregation in platelet-rich plasma (Born and Cross method); assay type: cell-based; conditions: Homo sapiens, 10 min, platelet-rich plasma of healthy volunteers, 10 minutes incubation at 37° C., compounds of general formula I, read-out: Inhibition of platelet aggregation EC50
Procedure: 2. Antithrombotic activity Thrombocyte aggregation is measured using the Born and Cross method (J. Physiol. 170: 397 (1964)) in platelet-rich plasma taken from healthy volunteers. To inhibit coagulation the blood is mixed with 3.14% sodium citrate in a ratio by volume of 1:10. Collagen-induced aggregation The pattern of the decrease in optical density of the platelet suspension is photometrically measured and recorded after the addition of the aggregation-triggering substance. The rate of aggregation is determined from the angle of inclination of the density curve. The point on the curve where there is maximum light transmittance is used to calculate the optical density. The amount of collagen used is as small as possible but sufficient to produce an irreversible reaction curve. Standard commercial collagen produced by Hormonchemie of Munich is used. Before the addition of the collagen the plasma is incubated for 10 minutes with the test substance at 37° C. From the measurements obtained, an EC50 is determined graphically, indicating a 50% change in the optical density in terms of the inhibition of aggregation. B. Antithrombotic effect Platelet aggregation is measured by the method of Born and Cross (J. Physiol. 170, 397 (1964)) in platelet-rich plasma from healthy test subjects. For anticoagulation, sodium citrate 3.14% is added to the blood in the ratio 1:10 by volume. Collagen-induced aggregation The course of the decrease in optical density of the platelet suspension is measured and recorded photometrically after addition of the aggregation-inducing substance. The rate of aggregation is established from the angle of inclination of the density plot. The point on the plot at which the transmission of light is a maximum is used to calculate the optical density. The amount of collagen is chosen to be as small as possible but sufficient for the reaction plot to have an irreversible course. The collagen commercially obtainable from Hormonchemie, Munich, is used. Before the addition of collagen the plasma is in each case incubated with the substance at 37° C. for 10 minutes. An EC50 which relates to a 50% change in the optical density in the sense of inhibition of aggregation is determined graphically from the measured results.

mice = assay: Tolerance after intravenous administration in mice; assay type: in vivo; conditions: mice (three), 30 mg/kg
Human thrombocytes = assay: Inhibition of the binding of 3H-BIBU 52 to human thrombocytes (platelets); conditions: human thrombocytes in plasma; 3H-BIBU 52 5 nM; 20 minutes, ambient temperature; read-out: 3H-BIBU 52-binding test IC50
Procedure: 1. Inhibition of the binding of ^3 H-BIBU 52 to Human thrombocytes […] Case 5/1093-FL) and various concentrations of the test substance. The free and bound ligand are separated by centrifuging and quantitatively measured by scintillation counting. From the measurements obtained the inhibition of ^3 H-BIBU 52 binding caused by the test substance is determined. In order to do this, donor blood is taken from an anticubital vein and anti-coagulated with trisodium citrate (final concentration 13 mM). The blood is centrifuged for 10 minutes at 170×g and the supernatant platelet-rich plasma (PRP) is removed. The remaining blood is centrifuged vigorously once more in order to recover plasma. The PRP is diluted with autologous plasma 1:10. 750 μl are incubated for 20 minutes at ambient temperature with 50 μl of physiological saline solution, 100 μl of test substance solution, 50 μl of ^14 C-sucrose (3700 Bq) and 50 μl of ^3 H-BIBU 52 (final concentration: 5 nM). In order to measure the non specific binding, 5 μl of BIBU 52 (final concentration 30 μM) are used instead of the test substance. […] The pellet is dissolved in 500 μl of 0.2N NaOH, 450 μl are mixed with 2 ml of scintallator and 25 μl of 5N HCl, and measured. The residual plasma remaining in the pellet is determined from the ^14 C-content, and the bound ligand is determined from the ^3 H-measurement. After substracting the non specific binding, the pellet activity is plotted against the concentration of the test substance and the concentration for 50% inhibition of binding is determined. A. Inhibition of the binding of ^3 H-BIBU 52 to human platelets […] The free and bound ligand is separated by centrifugation and determined quantitatively by scintillation counting. The inhibition of ^3 H-BIBU 52 binding by the test substance is determined from the measurements. For this purpose, donor blood is taken from an antecubital vein and anticoagulated with trisodium citrate (final concentration 13 mM). The blood is centrifuged at 170×g for 10 minutes, and the supernatant platelet-rich plasma (PRP) is removed. The remaining blood is thoroughly centrifuged once again to obtain plasma. The PRP is diluted 1:10 with autologous plasma. […] are incubated with […] of physiological saline, […] of test substance solution, […] of ^14 C-sucrose (3700 Bq) and 50 ml of ^3 H-BIBU 52 (final concentration: 5 nM) at room temperature for 20 minutes. To measure the nonspecific binding, 5 ml of BIBU 52 (final concentration: […]) are used in place of the test substance. […] The pellet is dissolved in 500 ml of 0.2N NaOH, and 450 ml are mixed with 2 ml of scintillator and 25 ml of 5N HCl and measured. The remaining plasma still present in the pellet is determined from the ^14 C content, and the bound ligand is determined from the ^3 H measurement. After subtraction of the nonspecific binding, the activity in the pellet is plotted against the concentration of test substance, and the concentration for 50% inhibition of binding is found.

[2] = tested on: collagen-induced thrombocyte aggregation; assay: Inhibition of collagen-induced thrombocyte aggregation ex vivo after oral administration; assay type: in vivo; conditions: Rhesus monkeys; oral administration of 1 mg/kg

Structure (SMILES) | EC50 [1] [nM] | deaths / tolerance after intravenous administration (mice) | IC50 (Human thrombocytes) [nM] | duration of inhibition of collagen-induced thrombocyte aggregation ex vivo [2]
CN1CCc2ccc(N3CCN(c4ccc(CCC(=O)O)cc4)C3=O)cc2CC1 [8(1), 1-[4-(2-carboxyethyl)phenyl]-3-(3-methyl-2,3,4,5-tetrahydro-1H-3-benzazepin-7-yl)-imidazolidin-2-one-hydrochloride×1.5 water] | 150 | none of the three test animals died | 36 | 
CN1CCc2ccc(N3CCN([C@H]4CC[C@H](CCC(=O)O)CC4)C3=O)cc2CC1.Cl [Example 19, 1-[trans-4-(2-Carboxyethyl)cyclohexyl]-3-(3-methyl-2,3,4,5-tetrahydro-1H-3-benzazepin-7-yl)-imidazolidin-2-one-hydrochloride] | 230 | none of the three test animals died | 59 | more than 8 hours
